According to ChEMBL document CHEMBL1201862, “PubChem BioAssay data set” (2004):
Each block holds one compound with its values, some of them ahead of it. Active and inactive are the calls of the source.

Assays:
[1] = molecular target: T1, Neuropeptide Y receptor type 1 (Homo sapiens, UniProt P25929); type: functional;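 further: HEK293 cells with a CNG channel challenged with NPY then isoproterenol; potency as antagonist that reverses NPY suppression of cAMP signal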
T1 sequence (P25929 whole entry): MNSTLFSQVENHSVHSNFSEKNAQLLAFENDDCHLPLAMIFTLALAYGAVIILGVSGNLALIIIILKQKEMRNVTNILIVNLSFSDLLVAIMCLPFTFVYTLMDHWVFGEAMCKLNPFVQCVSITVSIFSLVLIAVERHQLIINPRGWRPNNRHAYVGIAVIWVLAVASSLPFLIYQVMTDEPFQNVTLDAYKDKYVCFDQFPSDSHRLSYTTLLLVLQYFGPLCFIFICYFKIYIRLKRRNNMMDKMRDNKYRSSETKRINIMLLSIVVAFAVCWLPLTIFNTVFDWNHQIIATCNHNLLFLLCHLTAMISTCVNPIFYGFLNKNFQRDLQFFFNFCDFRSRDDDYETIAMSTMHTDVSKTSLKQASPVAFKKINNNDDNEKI

[2] = molecular target: T2, Neuropeptide Y receptor type 2 (Homo sapiens, UniProt P49146); type: functional, cell-based;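 further: HEK293 cells expressing the receptor and a CNG channel; stimulus was NPY near EC95 followed by isoproterenol to raise cAMP; antagonist potency measured as restoring cAMP signal that NPY suppresses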
T2 sequence (P49146 whole entry): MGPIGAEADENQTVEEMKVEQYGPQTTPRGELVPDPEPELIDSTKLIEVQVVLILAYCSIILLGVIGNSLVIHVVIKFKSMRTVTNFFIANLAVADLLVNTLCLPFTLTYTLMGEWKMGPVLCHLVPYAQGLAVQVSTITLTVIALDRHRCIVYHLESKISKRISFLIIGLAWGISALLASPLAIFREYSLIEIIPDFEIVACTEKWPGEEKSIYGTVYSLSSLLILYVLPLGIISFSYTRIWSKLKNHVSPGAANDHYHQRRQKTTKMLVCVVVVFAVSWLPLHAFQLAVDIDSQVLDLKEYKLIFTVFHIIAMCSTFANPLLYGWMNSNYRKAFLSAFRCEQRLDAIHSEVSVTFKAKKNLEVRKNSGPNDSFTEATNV

[3] = molecular target: T3, High affinity choline transporter 1 (Homo sapiens, UniProt Q9GZV3); test: human choline transporter potentiators, potency – cell-based, 10-point CRC, membrane potential dye, dose response (AID 602376); type: functional
T3 sequence (Q9GZV3 whole entry): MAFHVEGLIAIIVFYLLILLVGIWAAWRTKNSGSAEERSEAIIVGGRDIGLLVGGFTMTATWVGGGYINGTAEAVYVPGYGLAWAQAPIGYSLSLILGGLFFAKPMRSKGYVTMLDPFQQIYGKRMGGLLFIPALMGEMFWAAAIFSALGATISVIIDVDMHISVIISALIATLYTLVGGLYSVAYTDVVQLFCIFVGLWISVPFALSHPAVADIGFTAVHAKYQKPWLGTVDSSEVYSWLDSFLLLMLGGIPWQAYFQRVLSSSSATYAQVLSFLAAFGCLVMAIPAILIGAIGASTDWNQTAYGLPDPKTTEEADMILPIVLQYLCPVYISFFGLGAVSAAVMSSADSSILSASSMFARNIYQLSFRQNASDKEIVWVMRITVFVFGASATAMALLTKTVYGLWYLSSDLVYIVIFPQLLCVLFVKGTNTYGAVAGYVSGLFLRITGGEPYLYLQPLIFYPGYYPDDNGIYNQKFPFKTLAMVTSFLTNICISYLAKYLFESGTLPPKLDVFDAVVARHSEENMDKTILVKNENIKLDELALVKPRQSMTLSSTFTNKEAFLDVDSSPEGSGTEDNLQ

[4] = molecular target: Protein disulfide-isomerase (Homo sapiens, UniProt P07237); test: inhibition of PDI-driven insulin aggregation – biochemical, turbidity, absorbance, cherry-picked samples, dose response (AID 602350); type: functional
[5] = molecular target: Glycogen synthase kinase-3 alpha (Homo sapiens, UniProt P49840); test: Inhibition of Human GSK-3 alpha Activity Measured in Biochemical System Using Microfluidics - 2063-06_Inhibitor_Dose_DryPowder_Activity_Set2. [Related pubchem assays (depositor defined):AID2709]
[6] = molecular target: Glycogen synthase kinase-3 beta (Homo sapiens, UniProt P49841); test: Inhibition of Human GSK-3 beta Activity Measured in Biochemical System Using Microfluidics - 2063-05_Inhibitor_Dose_DryPowder_Activity_Set2. [Related pubchem assays (depositor defined):AID2709]
[7] = molecular target: Cytochrome P450 2D6 (Homo sapiens, UniProt P10635);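 further: CYP2D6 member of a cytochrome P450 panel assay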
[8] = molecular target: Cytochrome P450 2C9 (Homo sapiens, UniProt P11712)
[9] = molecular target: T4, Caspase-3 (Homo sapiens, UniProt P42574); test: inhibition of recombinant caspase-3 activity – biochemical, luminescence, set 2, selectivity assay for SENP protease inhibitor project, SAR follow-up (AID 588599); type: functional
T4 sequence (P42574 whole entry): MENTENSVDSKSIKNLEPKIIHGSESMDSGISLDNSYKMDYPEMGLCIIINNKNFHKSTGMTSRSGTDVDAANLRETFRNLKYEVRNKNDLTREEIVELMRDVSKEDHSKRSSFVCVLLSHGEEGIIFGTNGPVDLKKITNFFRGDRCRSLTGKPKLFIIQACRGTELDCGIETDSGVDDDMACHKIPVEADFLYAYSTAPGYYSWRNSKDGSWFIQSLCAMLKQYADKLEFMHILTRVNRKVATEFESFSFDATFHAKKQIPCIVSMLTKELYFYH

[10] = molecular target: T5, Sentrin-specific protease 8 (Homo sapiens, UniProt Q96LD8); test: inhibition of sentrin protease 8 – biochemical, luminescence, set 2, SAR follow-up (AID 588601); type: functional
T5 sequence (Q96LD8 whole entry): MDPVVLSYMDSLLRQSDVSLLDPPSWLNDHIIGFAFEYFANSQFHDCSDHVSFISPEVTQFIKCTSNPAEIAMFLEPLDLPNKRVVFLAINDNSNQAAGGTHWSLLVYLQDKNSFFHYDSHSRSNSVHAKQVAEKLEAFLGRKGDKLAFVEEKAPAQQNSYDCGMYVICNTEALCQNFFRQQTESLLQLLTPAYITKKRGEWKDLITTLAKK

[11] = molecular target: T6, Sentrin-specific protease 7 (Homo sapiens, UniProt Q9BQF6); test: inhibition of human SENP7 cleavage activity – biochemical, luminescence, set 2, SAR follow-up (AID 588600); type: functional
T6 sequence (Q9BQF6 whole entry): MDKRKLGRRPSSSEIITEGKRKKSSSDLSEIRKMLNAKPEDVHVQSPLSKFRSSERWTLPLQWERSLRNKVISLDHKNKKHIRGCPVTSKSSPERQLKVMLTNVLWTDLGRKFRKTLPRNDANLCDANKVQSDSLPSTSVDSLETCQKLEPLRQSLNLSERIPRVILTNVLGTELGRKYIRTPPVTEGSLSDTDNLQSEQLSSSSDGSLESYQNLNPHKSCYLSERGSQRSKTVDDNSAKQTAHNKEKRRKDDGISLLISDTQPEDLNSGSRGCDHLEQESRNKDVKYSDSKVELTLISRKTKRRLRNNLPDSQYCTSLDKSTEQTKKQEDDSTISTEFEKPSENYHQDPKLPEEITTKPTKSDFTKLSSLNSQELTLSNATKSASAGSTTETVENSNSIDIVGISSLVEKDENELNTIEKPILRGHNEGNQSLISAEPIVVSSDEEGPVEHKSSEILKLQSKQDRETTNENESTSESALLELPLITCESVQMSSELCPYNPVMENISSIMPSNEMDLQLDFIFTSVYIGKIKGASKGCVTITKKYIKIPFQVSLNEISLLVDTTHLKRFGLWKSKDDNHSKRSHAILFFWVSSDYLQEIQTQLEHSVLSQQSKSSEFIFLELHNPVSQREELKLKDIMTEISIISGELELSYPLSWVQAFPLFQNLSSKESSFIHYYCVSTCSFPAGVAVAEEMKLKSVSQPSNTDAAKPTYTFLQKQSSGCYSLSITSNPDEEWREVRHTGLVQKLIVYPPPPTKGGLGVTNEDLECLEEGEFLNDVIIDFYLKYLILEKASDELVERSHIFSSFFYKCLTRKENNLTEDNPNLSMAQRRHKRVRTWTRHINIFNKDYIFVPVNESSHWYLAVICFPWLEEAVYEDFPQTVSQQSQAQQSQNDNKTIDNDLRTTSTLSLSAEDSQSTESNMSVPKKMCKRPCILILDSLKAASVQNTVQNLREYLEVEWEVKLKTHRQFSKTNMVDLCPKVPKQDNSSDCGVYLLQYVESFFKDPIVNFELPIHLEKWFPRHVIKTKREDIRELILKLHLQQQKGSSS

[12] = molecular target: T7, Sentrin-specific protease 6 (Homo sapiens, UniProt Q9GZR1); test: inhibition of human SENP6 catalytic domain – biochemical, luminescence, set 2, SAR follow-up (AID 588598); type: functional
T7 sequence (Q9GZR1 whole entry): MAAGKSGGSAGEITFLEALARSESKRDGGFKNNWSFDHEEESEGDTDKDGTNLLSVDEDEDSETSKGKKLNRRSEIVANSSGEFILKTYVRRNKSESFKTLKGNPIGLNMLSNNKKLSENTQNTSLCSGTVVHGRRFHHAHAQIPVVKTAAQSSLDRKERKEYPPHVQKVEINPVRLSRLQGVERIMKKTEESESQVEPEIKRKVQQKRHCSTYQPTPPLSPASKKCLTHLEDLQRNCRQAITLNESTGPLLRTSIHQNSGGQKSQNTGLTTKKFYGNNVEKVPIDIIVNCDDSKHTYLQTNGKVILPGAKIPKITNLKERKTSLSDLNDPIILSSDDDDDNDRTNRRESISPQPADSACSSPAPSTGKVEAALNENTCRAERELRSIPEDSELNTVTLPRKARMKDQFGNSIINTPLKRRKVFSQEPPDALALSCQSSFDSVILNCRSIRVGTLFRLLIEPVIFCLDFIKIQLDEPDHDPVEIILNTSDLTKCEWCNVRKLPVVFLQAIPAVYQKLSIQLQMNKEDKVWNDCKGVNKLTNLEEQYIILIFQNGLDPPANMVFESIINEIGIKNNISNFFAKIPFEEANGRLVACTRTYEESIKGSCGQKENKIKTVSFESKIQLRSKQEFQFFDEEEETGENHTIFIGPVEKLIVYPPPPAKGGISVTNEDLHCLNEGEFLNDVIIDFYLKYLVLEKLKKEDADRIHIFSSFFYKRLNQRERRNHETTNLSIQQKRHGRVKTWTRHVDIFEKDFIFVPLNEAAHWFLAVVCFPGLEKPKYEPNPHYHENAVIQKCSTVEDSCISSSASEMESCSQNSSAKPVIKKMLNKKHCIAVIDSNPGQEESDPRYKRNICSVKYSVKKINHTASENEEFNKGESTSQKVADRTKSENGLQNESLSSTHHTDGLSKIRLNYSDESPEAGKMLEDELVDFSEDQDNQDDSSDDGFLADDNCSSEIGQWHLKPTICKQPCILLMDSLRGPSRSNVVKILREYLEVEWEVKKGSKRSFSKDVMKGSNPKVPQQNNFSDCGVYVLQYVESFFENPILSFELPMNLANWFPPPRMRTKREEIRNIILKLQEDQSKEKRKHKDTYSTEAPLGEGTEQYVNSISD

[13] = molecular target: Vascular endothelial growth factor receptor 2 (Homo sapiens, UniProt P35968); type: functional
[14] = molecular target: Aurora kinase B (Homo sapiens, UniProt Q96GD4); type: functional
Sequence of Aurora kinase B (Q96GD4 whole entry): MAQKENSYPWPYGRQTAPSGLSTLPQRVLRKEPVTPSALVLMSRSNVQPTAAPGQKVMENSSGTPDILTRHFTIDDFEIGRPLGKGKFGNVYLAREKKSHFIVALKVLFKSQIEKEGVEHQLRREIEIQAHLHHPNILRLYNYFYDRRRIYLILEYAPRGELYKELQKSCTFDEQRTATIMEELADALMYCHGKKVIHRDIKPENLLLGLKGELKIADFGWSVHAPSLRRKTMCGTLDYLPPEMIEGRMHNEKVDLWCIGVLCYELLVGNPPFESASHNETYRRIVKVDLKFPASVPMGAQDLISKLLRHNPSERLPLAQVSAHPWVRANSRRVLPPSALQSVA

Sequence of Vascular endothelial growth factor receptor 2 (P35968 whole entry): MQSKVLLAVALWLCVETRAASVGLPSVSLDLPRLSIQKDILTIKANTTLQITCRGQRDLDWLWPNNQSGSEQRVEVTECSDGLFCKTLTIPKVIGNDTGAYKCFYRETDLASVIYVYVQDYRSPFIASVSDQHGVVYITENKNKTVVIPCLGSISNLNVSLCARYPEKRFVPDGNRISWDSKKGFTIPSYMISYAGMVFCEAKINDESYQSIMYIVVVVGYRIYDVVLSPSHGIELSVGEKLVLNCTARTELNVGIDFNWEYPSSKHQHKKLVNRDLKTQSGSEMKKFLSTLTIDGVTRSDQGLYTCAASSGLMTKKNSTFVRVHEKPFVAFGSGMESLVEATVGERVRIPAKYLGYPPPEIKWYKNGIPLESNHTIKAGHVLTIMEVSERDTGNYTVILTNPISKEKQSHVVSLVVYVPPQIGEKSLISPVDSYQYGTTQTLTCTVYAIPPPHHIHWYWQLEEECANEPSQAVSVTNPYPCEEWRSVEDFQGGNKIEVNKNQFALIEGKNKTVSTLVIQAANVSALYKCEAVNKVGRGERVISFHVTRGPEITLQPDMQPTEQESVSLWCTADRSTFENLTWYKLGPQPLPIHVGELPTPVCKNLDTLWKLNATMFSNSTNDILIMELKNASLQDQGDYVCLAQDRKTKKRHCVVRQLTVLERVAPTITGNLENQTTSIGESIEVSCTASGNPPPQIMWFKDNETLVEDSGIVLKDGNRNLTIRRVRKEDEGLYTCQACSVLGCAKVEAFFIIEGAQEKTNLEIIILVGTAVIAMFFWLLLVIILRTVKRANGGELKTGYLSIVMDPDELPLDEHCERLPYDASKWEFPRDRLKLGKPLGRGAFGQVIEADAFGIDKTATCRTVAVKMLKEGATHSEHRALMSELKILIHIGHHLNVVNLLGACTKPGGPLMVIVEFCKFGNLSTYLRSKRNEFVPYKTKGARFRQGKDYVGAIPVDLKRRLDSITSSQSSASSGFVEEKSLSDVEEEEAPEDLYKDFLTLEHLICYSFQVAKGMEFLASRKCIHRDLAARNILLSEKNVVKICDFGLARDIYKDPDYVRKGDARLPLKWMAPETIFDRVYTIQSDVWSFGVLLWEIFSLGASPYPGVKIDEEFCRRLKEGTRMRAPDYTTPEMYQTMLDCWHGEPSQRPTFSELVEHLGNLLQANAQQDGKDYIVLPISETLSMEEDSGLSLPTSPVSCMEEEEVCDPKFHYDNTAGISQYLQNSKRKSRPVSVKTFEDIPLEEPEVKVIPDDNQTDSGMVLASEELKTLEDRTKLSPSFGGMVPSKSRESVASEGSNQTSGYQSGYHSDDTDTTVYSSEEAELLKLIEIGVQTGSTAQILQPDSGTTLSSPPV
Sequence of Protein disulfide-isomerase (P07237 whole entry): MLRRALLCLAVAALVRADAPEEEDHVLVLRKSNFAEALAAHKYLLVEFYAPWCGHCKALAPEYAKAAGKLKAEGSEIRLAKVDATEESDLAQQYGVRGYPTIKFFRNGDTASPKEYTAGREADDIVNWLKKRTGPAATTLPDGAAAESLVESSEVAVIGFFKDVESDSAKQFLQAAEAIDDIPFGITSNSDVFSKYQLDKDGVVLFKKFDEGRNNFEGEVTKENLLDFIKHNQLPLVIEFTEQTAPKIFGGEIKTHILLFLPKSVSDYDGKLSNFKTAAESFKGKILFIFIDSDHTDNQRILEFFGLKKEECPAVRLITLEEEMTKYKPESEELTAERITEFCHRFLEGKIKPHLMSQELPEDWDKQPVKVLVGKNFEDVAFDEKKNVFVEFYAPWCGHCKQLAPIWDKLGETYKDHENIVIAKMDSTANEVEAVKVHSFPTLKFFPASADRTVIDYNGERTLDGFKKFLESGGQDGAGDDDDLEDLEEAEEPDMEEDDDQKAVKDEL
Sequence of Glycogen synthase kinase-3 alpha (P49840 whole entry): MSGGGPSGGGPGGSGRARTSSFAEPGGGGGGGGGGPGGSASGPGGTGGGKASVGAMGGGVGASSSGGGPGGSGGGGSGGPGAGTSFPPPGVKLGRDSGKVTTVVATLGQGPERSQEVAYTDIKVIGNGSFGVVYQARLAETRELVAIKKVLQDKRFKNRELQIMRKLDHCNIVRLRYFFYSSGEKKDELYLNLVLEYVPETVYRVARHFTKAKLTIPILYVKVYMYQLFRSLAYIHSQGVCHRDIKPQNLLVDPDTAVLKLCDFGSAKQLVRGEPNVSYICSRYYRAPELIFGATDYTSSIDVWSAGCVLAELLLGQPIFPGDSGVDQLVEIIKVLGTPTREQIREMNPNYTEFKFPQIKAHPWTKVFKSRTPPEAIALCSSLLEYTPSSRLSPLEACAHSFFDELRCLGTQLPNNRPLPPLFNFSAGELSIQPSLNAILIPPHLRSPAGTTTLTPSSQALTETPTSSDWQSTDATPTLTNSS
Sequence of Cytochrome P450 2D6 (P10635 whole entry): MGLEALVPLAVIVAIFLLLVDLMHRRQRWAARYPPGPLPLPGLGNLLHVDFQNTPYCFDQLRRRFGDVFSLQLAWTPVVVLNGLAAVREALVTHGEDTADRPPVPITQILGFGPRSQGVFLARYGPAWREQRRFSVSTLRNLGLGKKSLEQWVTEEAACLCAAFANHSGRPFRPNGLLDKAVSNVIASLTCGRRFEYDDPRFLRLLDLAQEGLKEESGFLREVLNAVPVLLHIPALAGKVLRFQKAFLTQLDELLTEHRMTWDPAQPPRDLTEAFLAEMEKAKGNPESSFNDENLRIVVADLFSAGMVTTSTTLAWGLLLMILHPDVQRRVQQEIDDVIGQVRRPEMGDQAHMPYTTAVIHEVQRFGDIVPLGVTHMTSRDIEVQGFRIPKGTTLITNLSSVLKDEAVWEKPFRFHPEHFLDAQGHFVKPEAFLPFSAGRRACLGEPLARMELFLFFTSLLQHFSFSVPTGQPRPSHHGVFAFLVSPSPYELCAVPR
Sequence of Glycogen synthase kinase-3 beta (P49841 whole entry): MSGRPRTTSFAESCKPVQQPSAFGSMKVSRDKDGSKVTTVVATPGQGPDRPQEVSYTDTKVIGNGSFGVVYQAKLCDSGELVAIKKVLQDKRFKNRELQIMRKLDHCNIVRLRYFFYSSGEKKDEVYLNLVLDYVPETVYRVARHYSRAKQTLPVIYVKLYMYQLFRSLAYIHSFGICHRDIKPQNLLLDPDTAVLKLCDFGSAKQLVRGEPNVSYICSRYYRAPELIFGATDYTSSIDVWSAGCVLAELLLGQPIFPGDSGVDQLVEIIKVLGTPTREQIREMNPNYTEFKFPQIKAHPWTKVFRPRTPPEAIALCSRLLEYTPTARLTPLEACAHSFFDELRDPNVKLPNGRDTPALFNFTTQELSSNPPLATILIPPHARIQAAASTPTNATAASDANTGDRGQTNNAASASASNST
Sequence of Cytochrome P450 2C9 (P11712 whole entry): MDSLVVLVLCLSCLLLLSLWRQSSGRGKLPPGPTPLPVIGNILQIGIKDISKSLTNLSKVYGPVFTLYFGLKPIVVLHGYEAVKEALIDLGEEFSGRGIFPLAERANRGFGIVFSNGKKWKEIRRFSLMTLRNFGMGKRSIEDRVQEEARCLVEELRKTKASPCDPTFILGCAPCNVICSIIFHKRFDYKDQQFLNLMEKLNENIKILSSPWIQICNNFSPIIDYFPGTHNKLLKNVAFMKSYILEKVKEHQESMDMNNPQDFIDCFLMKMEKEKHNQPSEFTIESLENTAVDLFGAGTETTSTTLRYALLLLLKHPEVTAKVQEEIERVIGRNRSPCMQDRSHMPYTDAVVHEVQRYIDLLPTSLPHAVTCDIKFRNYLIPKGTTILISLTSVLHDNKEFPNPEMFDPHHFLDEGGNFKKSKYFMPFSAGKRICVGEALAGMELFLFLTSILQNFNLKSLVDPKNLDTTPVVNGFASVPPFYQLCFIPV

SMILES: CCC1=Nc2ccc(Br)cc2C(c2ccccc2)N1CC(=O)OC (centres undefined)
IC50 [1]: 13.2 µM (not active)
IC50 [2]: > 35 µM (not active)
EC50 [3]: 14.3 µM (active)

SMILES: C[C@@H]1O[C@@H](O[C@@H]2C(=O)c3c(O)cc(O)cc3O[C@H]2c2ccc(O)c(O)c2)[C@H](O)[C@H](O)[C@H]1O
AC50 [4]: 10.2 µM (active)

SMILES: Cn1c(SCc2nnc(-c3ccc(F)cc3)o2)nnc1C1COc2ccccc2O1 (centres undefined)
AC50 [5]: 1.33 µM (active)
AC50 [6]: 0.7 µM (active)
AC50 [7]: 5.01 µM (inconclusive)
AC50 [8]: inconclusive

Second part, led by results:

IC50 [9]: > 99 µM (inactive)
IC50 [11]: > 99 µM (inactive)
IC50 [12]: > 99 µM (inactive)
SMILES: Cc1ccc(-c2cc(CNC(=O)C(=O)c3c[nH]c4ccccc34)no2)cc1
IC50 [10]: > 99 µM (inactive)

Ki [13]: 1.26 µM (active)
Ki [14]: 1.26 µM (active)
SMILES: COc1ccc(-c2cc(-c3ccccc3)nc3ncnc(NC(=O)COCC(=O)O)c23)cc1
